Legend:
[1] = molecular target: T1, recombinant human sEH (HsEH) (Homo sapiens, UniProt P34913); assay: biochemical
T1 sequence (P34913 1-555): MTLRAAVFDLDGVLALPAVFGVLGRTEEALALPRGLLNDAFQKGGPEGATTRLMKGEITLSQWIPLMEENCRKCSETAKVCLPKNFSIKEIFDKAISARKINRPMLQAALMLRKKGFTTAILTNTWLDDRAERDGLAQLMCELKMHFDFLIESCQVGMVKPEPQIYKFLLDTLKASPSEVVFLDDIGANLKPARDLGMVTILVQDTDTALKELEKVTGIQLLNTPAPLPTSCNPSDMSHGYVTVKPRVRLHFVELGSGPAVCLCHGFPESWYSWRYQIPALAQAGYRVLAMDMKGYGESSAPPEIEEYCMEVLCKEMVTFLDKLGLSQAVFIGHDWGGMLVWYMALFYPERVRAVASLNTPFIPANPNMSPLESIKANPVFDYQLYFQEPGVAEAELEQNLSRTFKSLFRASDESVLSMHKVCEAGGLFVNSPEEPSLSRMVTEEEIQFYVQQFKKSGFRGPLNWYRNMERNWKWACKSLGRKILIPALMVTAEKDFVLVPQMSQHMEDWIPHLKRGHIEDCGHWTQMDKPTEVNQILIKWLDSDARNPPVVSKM

CFA-induced AIA mice = assay: CFA-induced arthritis; format: in vivo, Kunming mice; details: 10 mg / kg ip
[2] = Microsomal stability in rat liver microsomes
[3] = test system: COX-2, sEH, NOS-2 and VCAM; assay: Western blot of inflammatory factors in plasma, LPS-induced sepsis model; format: in vivo, C57BL/6 mice; details: 5 mg / kg ip
[4] = Pharmacokinetic study in vivo
IL-6, MCP-5 and TNF-α = assay: ELISA of plasma inflammatory factors, LPS-induced sepsis model; format: in vivo, C57BL/6 mice; details: 5 mg / kg ip
[5] = Microsomal stability in human liver microsomes
LPS-induced sepsis model = assay: LPS-induced sepsis model, survival; format: in vivo, C57BL/6 mice; details: 28 hours; LPS 30 mg / kg ip; 5 mg / kg ip at 4 h and 12 h later
murine sEH (MsEH) = molecular target: T2, murine sEH (MsEH) (Mus musculus, UniProt P34914); assay: sEH inhibition, fluorescent-based assay with PHOME substrate; format: biochemical
T2 sequence (P34914 1-554): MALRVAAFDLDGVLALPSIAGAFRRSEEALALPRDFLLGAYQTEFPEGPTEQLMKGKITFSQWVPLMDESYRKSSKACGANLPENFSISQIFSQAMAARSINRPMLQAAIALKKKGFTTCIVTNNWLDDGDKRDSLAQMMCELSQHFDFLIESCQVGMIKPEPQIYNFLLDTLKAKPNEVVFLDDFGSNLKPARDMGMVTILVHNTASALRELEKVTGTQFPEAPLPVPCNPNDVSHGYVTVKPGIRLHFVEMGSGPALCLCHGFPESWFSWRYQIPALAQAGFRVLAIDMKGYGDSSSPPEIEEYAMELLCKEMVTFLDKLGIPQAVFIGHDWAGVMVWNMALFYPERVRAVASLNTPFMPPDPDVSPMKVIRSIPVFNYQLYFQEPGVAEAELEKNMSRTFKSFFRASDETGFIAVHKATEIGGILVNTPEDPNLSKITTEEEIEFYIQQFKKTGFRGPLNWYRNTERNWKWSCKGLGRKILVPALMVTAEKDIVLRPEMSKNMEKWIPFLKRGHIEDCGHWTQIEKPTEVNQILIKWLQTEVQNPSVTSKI

[6] = both, Sprague-Dawley, rat, in vivo, iv, 10 mg/kg

CCC(=O)N1CCCN(C(=O)C2CCCN(Cc3ccc(NC(=O)N[C@@]45C[C@@H]6C[C@@](C)(C[C@@](C)(C6)C4)C5)c(F)c3)C2)CC1 (stereo partly drawn) [G1, 1-((1r,3R,5S,7r)-3,5-Dimethyladamantan-1-yl)-3-(2-fluoro-4-((3-(4-propionyl-1,4-diazepane-1-carbonyl)piperidin-1-yl)methyl)phenyl)urea]
LLE (ligand lipophilicity efficiency) [1]: 7.553
effect on paw swelling rate, in words (CFA-induced AIA mice): significantly reduced the swelling rate of mouse paw thickness
increase of pain valve (pain threshold, hot plate) (CFA-induced AIA mice): 70.10%
reduced foot swelling, thickness (CFA-induced AIA mice): 21.4%
reduced foot swelling, width (CFA-induced AIA mice): 6.98%
body weight change (CFA-induced AIA mice; 24 h of drug treatment): increase in body weight
effect on pain threshold, in words (CFA-induced AIA mice; hot plate): faster onset of analgesia than celecoxib
time after administration at which analgesic effect began (CFA-induced AIA mice; hot plate): 10 min
time of peak analgesic effect (CFA-induced AIA mice; hot plate): 2 h
Mean concentration of G1 in microsomal buffer ([2]; time 0): 100 µg/mL
Mean concentration of G1 in microsomal buffer ([2]; time 10): 75.04 µg/mL
Mean concentration of G1 in microsomal buffer ([2]; time 30): 66.63 µg/mL
Mean concentration of G1 in microsomal buffer ([2]; time 60): 62.01 µg/mL
COX-2 expression levels [3]: higher than in the control group
NOS-2 expression [3]: reduced NOS-2 expression
expression of sEH ([3]; compared to the model group): significantly reduced the expression of sEH
vascular cell adhesion molecule (VCAM) ([3]; compared to the solvent group): little change
AUC(0-inf) [4, 6]: 0.0115 µM·h
clearance [4, 6]: 4.83 mL/min/kg
AUC(0-inf) ([4]; both, Sprague-Dawley, rat, in vivo, po, 50 mg/kg): 0.0102 µM·h
CL ([4]; rats, po 50 mg / kg): 28.3 mL/min/kg
VZ ([4]; rats, po 50 mg / kg): 13.12 L/kg
IL-6 levels (IL-6, MCP-5 and TNF-α): significant reduction in IL-6 levels
TNF-α levels (IL-6, MCP-5 and TNF-α): considerably lowered TNF-α levels
effect of lowering MCP-5 (IL-6, MCP-5 and TNF-α): lower than dexamethasone
Mean concentration of G1 in microsomal buffer ([5]; time 0): 100 µg/mL
Mean concentration of G1 in microsomal buffer ([5]; time 10): 81.12 µg/mL
Mean concentration of G1 in microsomal buffer ([5]; time 30): 74.76 µg/mL
Mean concentration of G1 in microsomal buffer ([5]; time 60): 68.78 µg/mL

C[C@@H]1C[C@H]2[C@@H]3CCC4=CC(=O)C=C[C@]4(C)[C@@]3(F)[C@@H](O)C[C@]2(C)[C@@]1(O)C(=O)CO [dexamethasone, reference compound]
survival rate (LPS-induced sepsis model): all of the mice in the dexamethasone group died
COX-2 expression levels [3]: higher than in the control group
IL-6 levels (IL-6, MCP-5 and TNF-α): significant reduction in IL-6 levels
TNF-α levels (IL-6, MCP-5 and TNF-α): considerably lowered TNF-α levels

C[C@]12C[C@@H]3C[C@](C)(C1)C[C@@](NC(=O)Nc1ccc(C(=O)N4CCC(C(=O)N5CCN(CCO)CC5)CC4)cc1F)(C3)C2 [A4, 1-((1r,3R,5S,7r)-3,5-Dimethyladamantan-1-yl)-3-(2-fluoro-4-(4-(4-(2-hydroxyethyl)piperazine-1-carbonyl)piperidine-1-carbonyl)phenyl)urea]
IC50 (murine sEH (MsEH)): 0.32 nM
IC50 [1]: 12.5 nM
